Values of other authors in patent US9974743B2, “Device and method for delivery of a medicament” (Philip Morris Products S.A., priority 2009, dated 2018).

Conditions: 25° C.

Which vapor pressure does the source give for `CN1CCCC1c1cccnc1` (stereo not shown) [Nicotine Control, Nicotine] here?
The vapor pressure was 0.04 mm Hg.
